Test results published in ChEMBL document CHEMBL5096235, “In Silico Exploration and Biological Evaluation of Bispecific Peptides Derived from Anti-HER2 Antibodies and Peptide-Camptothecin Conjugates for HER2-Positive Breast Cancer” (J Med Chem, 2022).
Active and inactive are the calls of the source. No cut-off for these calls is given here. Residues, ends and D or L forms follow the SMILES beside them. *: point of attachment. S(CH2)2OCO2(CPT-20-yl) = CC[C@@]1(OC(=O)OCCS*)C(=O)OCc2c1cc1n(c2=O)Cc2cc3ccccc3nc2-1

Columns and labels:
[1] = biological target: T1, Receptor tyrosine-protein kinase erbB-2 (Homo sapiens, UniProt P04626); assay: Binding affinity to recombinant HER2 (unknown origin) assessed as dissociation constant by SPR analysis
T1 sequence (P04626 whole entry): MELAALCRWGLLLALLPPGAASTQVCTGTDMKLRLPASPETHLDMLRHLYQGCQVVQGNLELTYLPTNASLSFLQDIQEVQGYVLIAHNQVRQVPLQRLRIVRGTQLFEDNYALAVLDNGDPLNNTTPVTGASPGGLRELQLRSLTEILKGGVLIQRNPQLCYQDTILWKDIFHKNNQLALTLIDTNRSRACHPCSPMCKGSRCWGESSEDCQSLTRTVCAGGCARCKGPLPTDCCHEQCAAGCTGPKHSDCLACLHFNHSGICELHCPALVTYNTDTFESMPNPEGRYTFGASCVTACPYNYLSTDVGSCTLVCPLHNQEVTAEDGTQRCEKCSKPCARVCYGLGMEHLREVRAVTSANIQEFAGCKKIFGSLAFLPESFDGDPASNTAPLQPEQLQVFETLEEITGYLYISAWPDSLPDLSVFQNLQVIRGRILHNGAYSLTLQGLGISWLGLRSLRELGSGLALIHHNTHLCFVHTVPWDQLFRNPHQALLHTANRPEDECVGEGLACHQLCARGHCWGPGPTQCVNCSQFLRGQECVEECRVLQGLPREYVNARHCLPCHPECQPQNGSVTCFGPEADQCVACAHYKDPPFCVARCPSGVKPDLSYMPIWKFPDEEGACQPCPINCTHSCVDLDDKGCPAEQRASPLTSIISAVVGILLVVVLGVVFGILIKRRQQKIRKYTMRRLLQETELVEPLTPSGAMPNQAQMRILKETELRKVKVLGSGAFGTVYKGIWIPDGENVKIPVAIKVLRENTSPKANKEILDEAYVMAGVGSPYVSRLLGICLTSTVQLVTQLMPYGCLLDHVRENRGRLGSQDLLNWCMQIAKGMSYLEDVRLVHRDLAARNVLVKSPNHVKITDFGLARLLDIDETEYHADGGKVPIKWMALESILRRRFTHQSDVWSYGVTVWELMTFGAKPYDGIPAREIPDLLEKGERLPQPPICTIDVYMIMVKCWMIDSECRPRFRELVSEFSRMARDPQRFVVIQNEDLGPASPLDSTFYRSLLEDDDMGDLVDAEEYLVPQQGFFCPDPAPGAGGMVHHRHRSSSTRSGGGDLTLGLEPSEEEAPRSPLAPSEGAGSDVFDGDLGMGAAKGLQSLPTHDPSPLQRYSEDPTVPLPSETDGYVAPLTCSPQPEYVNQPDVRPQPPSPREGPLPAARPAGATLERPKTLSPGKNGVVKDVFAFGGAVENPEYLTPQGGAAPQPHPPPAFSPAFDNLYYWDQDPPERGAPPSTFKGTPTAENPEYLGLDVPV

[2] = biological target: T1, Receptor tyrosine-protein kinase erbB-2; assay: Binding affinity to HER2 in HER-positive human SK-BR-3 cells assessed as increase in fluorescence intensity at 25 uM by Hoechst 33342 staining based confocal microscopic analysis; assay type: cell-based
[3] = test system: NCI-N87; assay: Cytotoxicity against HER-positive human NCI-N87 cells assessed as inhibition of cell growth incubated for 48 hrs by MTT assay; assay type: functional, cell-based; settings: NCI-N87, 48 h
[4] = test system: SK-OV-3; assay: Cytotoxicity against HER-positive human SK-OV-3 cells assessed as inhibition of cell growth incubated for 48 hrs by MTT assay; assay type: functional, cell-based; settings: SK-OV-3, 48 h
[5] = test system: MDA-MB-231; assay: Cytotoxicity against HER-negative human MDA-MB-231 cells assessed as inhibition of cell growth incubated for 48 hrs by MTT assay; assay type: functional, cell-based; settings: MDA-MB-231, 48 h
[6] = test system: SK-BR-3; assay: Induction of apoptosis in human SK-BR-3 cells assessed as early apoptotic cells at 2 uM incubated for 24 hrs by Annexin V-FITC/PI staining based flow cytometry analysis (Rvb= 4.37%); assay type: functional
[7] = test system: SK-BR-3; assay: Induction of apoptosis in human SK-BR-3 cells assessed as dead cells at 2 uM incubated for 24 hrs by Annexin V-FITC/PI staining based flow cytometry analysis (Rvb= 1.21%); assay type: functional
[8] = test system: SK-BR-3; assay: Induction of cell cycle arrest in human SK-BR-3 cells assessed as accumulation of cells at S phase at 2 uM incubated for 24 hrs by flow cytometry analysis (reference value: 23%); assay type: functional
[9] = Metabolic stability in Sprague-Dawley rat plasma assessed as drug degradation incubated for 120 mins by LC-MS/MS analysis; assay type: ADME, cell-free; settings: 2 h
[10] = Hemolytic activity in rat erythrocytes at 3.125 to 100 uM by microplate reader analysis relative to control; assay type: toxicity, cell-based, Erythrocyte; settings: dose 3.125-100 µM, read-out: Activity
[11] = Toxicity in nude mouse xenografted with human SK-BR-3 cells assessed as reduction in body weight at 8 umol/kg, iv administered every 3 days for 14 days; assay type: organism-based; settings: in vivo, 336 h, dose 8 µmol/kg, time 14 day
[12] = Toxicity in nude mouse xenografted with human SK-BR-3 cells assessed as spleen damage at 8 micromol/kg, iv administered every 3 days for 14 days by H and E staining based analysis; assay type: organism-based; settings: in vivo, 336 h, dose 8 µmol/kg, time 14 day
[13] = Toxicity in nude mouse xenografted with human SK-BR-3 cells assessed as inflammatory cell infiltration at 8 micromol/kg, iv administered every 3 days for 14 days by H and E staining based analysis; assay type: organism-based; settings: in vivo, 336 h, dose 8 µmol/kg, time 14 day
[14] = biological target: T2, DNA topoisomerase 1 (Homo sapiens) (UniProt P11387); assay: Inhibition of topoisomerase 1 (unknown origin) assessed as relaxation of supercoiled plasmid pBR322 DNA at 10 uM preincubated for 20 mins followed by pBR322 DNA addition and measured after 30 mins by agarose gel electrophoresis analysis; settings: time 50.0 min
T2 sequence (whole entry): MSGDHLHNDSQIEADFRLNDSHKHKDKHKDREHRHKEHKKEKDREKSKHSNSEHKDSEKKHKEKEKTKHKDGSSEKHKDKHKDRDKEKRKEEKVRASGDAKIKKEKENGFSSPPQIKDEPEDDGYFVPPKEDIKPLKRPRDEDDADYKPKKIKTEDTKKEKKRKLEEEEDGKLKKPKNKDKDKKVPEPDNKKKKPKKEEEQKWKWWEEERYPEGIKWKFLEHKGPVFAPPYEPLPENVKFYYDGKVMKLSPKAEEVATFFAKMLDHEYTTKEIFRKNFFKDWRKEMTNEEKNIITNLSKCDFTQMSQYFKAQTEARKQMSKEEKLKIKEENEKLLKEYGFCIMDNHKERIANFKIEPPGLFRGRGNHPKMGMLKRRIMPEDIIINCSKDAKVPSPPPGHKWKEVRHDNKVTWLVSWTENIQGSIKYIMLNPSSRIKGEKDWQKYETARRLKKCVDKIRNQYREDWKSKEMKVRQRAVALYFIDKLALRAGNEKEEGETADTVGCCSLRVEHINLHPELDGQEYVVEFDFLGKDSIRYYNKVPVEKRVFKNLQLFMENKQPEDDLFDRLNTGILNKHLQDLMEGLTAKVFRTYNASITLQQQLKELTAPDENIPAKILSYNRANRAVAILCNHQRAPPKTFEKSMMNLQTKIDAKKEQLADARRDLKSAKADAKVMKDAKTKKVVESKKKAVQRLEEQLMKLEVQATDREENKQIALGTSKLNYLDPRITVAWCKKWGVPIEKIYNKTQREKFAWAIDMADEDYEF

Row | SMILES | Kd [1] [nM] | Activity [2] | IC50 [3] [nM] | IC50 [4] [nM] | IC50 [5] [nM] | Activity [6] [%] | Activity [7] [%] | Activity [8] [%] | Stability [9] | hemolysis at 100 µM [10] [%] | Activity [11] | Activity [12] | Activity [13] | inhibition [14]
1 | CC[C@H](C)[C@H](NC(=O)[C@@H](N)CCCNC(=N)N)C(=O)N[C@@H](CCCCN)C(=O)N1CCC[C@H]1C(=O)N[C@@H](CCCNC(=N)N)C(=O)N[C@@H](CCCCN)C(=O)NCC(=O)N[C@@H](Cc1ccc(O)cc1)C(=O)N[C@H](C(=O)N[C@@H](CCCNC(=N)N)C(=O)NCC(=O)N[C@@H](CSSCCOC(=O)O[C@]1(CC)C(=O)OCc2c1cc1n(c2=O)Cc2cc3ccccc3nc2-1)C(=O)NCC(=O)N[C@@H](CC(N)=O)C(=O)N1CCC[C@H]1C(=O)N[C@@H](CC(N)=O)C(=O)N[C@@H](Cc1c[nH]c2ccccc12)C(=O)NCC(=O)N[C@@H](CCCNC(=N)N)C(=O)N[C@@H](CO)C(=O)N[C@@H](Cc1c[nH]c2ccccc12)C(=O)N[C@@H](Cc1ccc(O)cc1)C(=O)N[C@@H](CC(N)=O)C(=O)N[C@@H](CCC(N)=O)C(=O)N[C@@H](CCCNC(=N)N)C(=O)N[C@@H](Cc1ccccc1)C(=O)N[C@@H](CCCCN)C(N)=O)[C@@H](C)O (H-RIKPRKGYTRGC(S(CH2)2OCO2(CPT-20-yl))GNPNWGRSWYNQRFK-NH2) | 330 | Active | 3290 | 4290 | 7600 | 39.4 | 0.64 | 48.5 | Unstable | < 10 | Non-Toxic | Non-Toxic | Non-Toxic | 
2 | CC[C@H](C)[C@H](NC(=O)[C@@H](N)CCCNC(=N)N)C(=O)N[C@@H](CCCCN)C(=O)N1CCC[C@H]1C(=O)N[C@@H](CCCNC(=N)N)C(=O)N[C@@H](CCCCN)C(=O)NCC(=O)N[C@@H](Cc1ccc(O)cc1)C(=O)N[C@H](C(=O)N[C@@H](CCCNC(=N)N)C(=O)NCC(=O)N[C@@H](CSSCCOC(=O)O[C@]1(CC)C(=O)OCc2c1cc1n(c2=O)Cc2cc3ccccc3nc2-1)C(=O)NCC(=O)N[C@@H](CSSCCOC(=O)O[C@]1(CC)C(=O)OCC2=C1C=C1c3nc4ccccc4cc3NC1C2=O)C(=O)NC(=O)C[C@H](NC(=O)CN)C(=O)N1CCC[C@H]1C(=O)N[C@@H](CC(N)=O)C(=O)N[C@@H](Cc1c[nH]c2ccccc12)C(=O)NCC(=O)N[C@@H](CCCNC(=N)N)C(=O)N[C@@H](CO)C(=O)N[C@@H](Cc1c[nH]c2ccccc12)C(=O)N[C@@H](Cc1ccc(O)cc1)C(=O)N[C@@H](CC(N)=O)C(=O)N[C@@H](CCC(N)=O)C(=O)N[C@@H](CCCNC(=N)N)C(=O)N[C@@H](Cc1ccccc1)C(=O)N[C@@H](CCCCN)C(N)=O)[C@@H](C)O (stereo partly specified) | 437 | Active | 1780 | 1270 | 7720 | 41 | 0.28 | 49.2 | Unstable |  | Non-Toxic | Non-Toxic | Non-Toxic | Active
